The values below come from patent US8765755B2, “N-containing heterocyclic compounds” (YM Biosciences Australia Pty Ltd, priority 2007, dated 2014).

Test [1] relates to BafT_J2. Put plainly: Cellular screening, BaF3 TEL:JAK2 cells (Alamar Blue). It is filed as cell-based. The note with it: Mus musculus, 40 hr incubation. A digest of the protocol: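 BaF3 cells expressing a TEL–JAK2 kinase-domain fusion, growth-factor independent, were exposed to compounds for 40 hr at 37° C, 5% CO2. Screening concentration was 20 μM in the dilution plate, added as 10× final. Viability read with Alamar Blue after a further 4-6 h, at 544 nm.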
(In general: Resazurin is reduced to fluorescent resorufin, in cell work by metabolically active cells.)

For test [2], the target named is T1, human JAK3 (Homo sapiens, UniProt P52333).
T1 construct: The kinase domain of human JAK3 was amplified; GST (N); made in house; host or cells: Sf9 (Spodoptera frugiperda) insect cells, baculovirus
T1 sequence (P52333 822-1111 limits assumed): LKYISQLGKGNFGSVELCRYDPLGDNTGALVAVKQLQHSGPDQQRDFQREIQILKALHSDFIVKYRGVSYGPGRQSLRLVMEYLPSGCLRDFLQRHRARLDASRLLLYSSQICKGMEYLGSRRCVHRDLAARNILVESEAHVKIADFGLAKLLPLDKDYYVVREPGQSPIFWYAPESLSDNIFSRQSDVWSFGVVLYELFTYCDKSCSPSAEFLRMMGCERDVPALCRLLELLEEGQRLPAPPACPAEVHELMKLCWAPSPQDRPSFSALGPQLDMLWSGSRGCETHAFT
In words: JAK3 kinase enzyme assay (Alphascreen). It is filed as biochemical. As to conditions: 80 or 625 um ATP. Put shortly: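 Sf9-expressed GST-tagged human JAK3 kinase domain was pre-incubated 20 min with compound at 5 μM final in HEPES pH 7.5 buffer. Then 60 or 90 min reaction with 80 or 625 μM ATP and biotinylated peptide substrate at 111 or 133 μM. AlphaScreen phosphotyrosine acceptor and streptavidin donor beads, 2–3 h.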

For test [3], the target named is T2, human JAK2 (Homo sapiens, UniProt O60674).
T2 construct: The kinase domain of human JAK2 was amplified; GST (N); made in house; host or cells: Sf9 (Spodoptera frugiperda) insect cells, baculovirus
T2 sequence (O60674 849-1124 limits assumed): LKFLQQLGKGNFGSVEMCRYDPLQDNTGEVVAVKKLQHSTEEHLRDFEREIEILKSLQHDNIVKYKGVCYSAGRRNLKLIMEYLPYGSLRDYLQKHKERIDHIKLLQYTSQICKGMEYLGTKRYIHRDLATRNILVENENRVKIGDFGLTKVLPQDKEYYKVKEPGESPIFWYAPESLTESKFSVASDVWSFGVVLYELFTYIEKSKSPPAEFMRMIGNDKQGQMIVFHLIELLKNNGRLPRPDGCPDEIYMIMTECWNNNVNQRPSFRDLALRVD
In words: JAK2 kinase enzyme assay (Alphascreen). The note with it: 80 or 625 um ATP. Type of test: biochemical. A digest of the protocol: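 Compounds at 5 μM final were pre-incubated 20 min with Sf9-expressed GST-JAK2 kinase domain in HEPES pH 7.5 phosphotyrosine buffer, then incubated 60 or 90 min with 80 or 625 um ATP. Substrate was biotinylated peptide 1 (111 μM final) or peptide 2 (133 μM final). Phosphotyrosine was detected by AlphaScreen acceptor/streptavidin donor beads after 2–3 h.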
Background: Alpha assays give light when donor and acceptor beads are brought close together.

Test [4] has as its target T3, human JAK1 (Homo sapiens, UniProt P23458).
T3 construct: The kinase domain of human JAK1 was amplified; GST (N); made in house; host or cells: Sf9 (Spodoptera frugiperda) insect cells, baculovirus
Put plainly: JAK1 kinase enzyme assay (Alphascreen). The note with it: 80 or 625 um ATP. Type of test: biochemical. As for the experimental part:
For screening purposes, compounds (in 100% DMSO) were warmed at 37 degrees for at least 20 minutes before use. A […] stock was initially made in assay buffer, where the final concentration of DMSO was 0.3%. The stocks were then diluted in 384 well Optiplates (Packard) where the final concentration of the compound was 5 μM.
The kinase domain of human JAK1 was amplified from U937mRNA using the polymerase chain reaction with the following primers: […]
The JAK1 PCR products were cloned into the pDest20 destination vector (Gibco). The JAK1 plasmid was then transformed into competent DH10Bac cells (Gibco), and the recombinant baculovirus was prepared via Sf9 insect cell transfection.
Baculovirus preparations from each of the JAK family members were infected into one litre of Sf9 (Spodoptera frugiperda) cells (Invitrogen) grown in SF900II serum free medium (Invitrogen) to a cell density of approximately 2×10^6 cells/ml. Cells were infected with virus at a cell culture to virus stock ratio of 20:1. Cells were harvested and lysed 48 hours post infection. The GST-tagged JAK kinase domains were purified by affinity chromatography on a GSH agarose column (Scientifix).
Kinase assays were performed in 384 well Optiplates (Packard) using an Alphascreen Protein Tyrosine KinaseP100 detection kit The compounds were pre-incubated with affinity purified PTK domain in the presence of phosphotyrosine assay buffer (10 mM HEPES, pH 7.5, 100 mM MgCl2, 25 mM NaCl, 200 mM sodium vanadate and 0.1% Tween 20) for 20 minutes. The compounds were then incubated with substrate in the presence of either 80 or 625 um ATP for 60 or 90 minutes. The substrate used was either susbtrate-1 with the sequence biotin-EGPWLEEEEEAYGWMDF-NH2 [SEQ. ID. NO. 13] (final concentration 111 μM) or susbtrate-2 substrate with the sequence biotin-EQEDEPEGDYFEWLEPE (final concentration 133 μM). Alphascreen phosphotyrosine acceptor beads followed by streptavidin donor beads at a concentration of 1/100 in stop buffer were added to each well under subdued light and incubated for 2-3 hours. The Alphascreen plates were read on a Packard Fusion Alpha instrument.

Test [5] deals with BAF3wt. Put plainly: Cellular screening, BaF3 wild-type cells (Alamar Blue). Type of test: cell-based. The note with it: Mus musculus, 40 hr incubation. Put shortly:
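BaF3 wild-type cells grown in DMEM with 10% FCS and 10% WEHI 3B conditioned medium, incubated with compound for 40 h at 37 °C, 5% CO2. Viability read by Alamar Blue after a further 4-6 h, at 544 nm; screening concentration 20 μM in dilution plate.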

The subject of test [6] is CTLL2. Put plainly: Cellular screening, CTLL2 cells (Alamar Blue). As to conditions: Mus musculus, CTLL-2, 40 hr incubation. It is filed as cell-based. Put shortly: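 CTLL2 cells in late log phase were incubated with compounds, from screening plates at 20 μM, for 40 hr at 37° C, 5% CO2. Viability was read by Alamar Blue, added for a further 4-6 hours, with the read at 544 nm.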

Test [7] relates to BafT_J3. Put plainly: Cellular screening, BaF3 TEL:JAK3 cells (Alamar Blue). Type of test: cell-based. The note with it: Mus musculus, 40 hr incubation. Put shortly:
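Growth-factor-independent BaF3 tet-off cells express a TEL(nt 1–487)/JAK3 kinase-domain fusion and are grown without WEHI 3B medium. Compound plates were prepared at 20 μM and added as 10× final. After 40 h at 37 °C, 5% CO2, Alamar Blue was added for 4–6 h and read at 544 nm.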

T3 sequence (P23458 875-1153 limits assumed): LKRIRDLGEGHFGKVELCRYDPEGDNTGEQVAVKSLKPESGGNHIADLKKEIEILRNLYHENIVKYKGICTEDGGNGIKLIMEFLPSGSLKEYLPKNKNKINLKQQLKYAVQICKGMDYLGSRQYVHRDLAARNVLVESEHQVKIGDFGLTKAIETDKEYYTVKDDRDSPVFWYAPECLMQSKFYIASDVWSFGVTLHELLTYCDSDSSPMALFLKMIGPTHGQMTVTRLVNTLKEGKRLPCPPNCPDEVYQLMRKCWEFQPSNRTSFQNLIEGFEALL

`COc1ccc(Nc2ncc3scc(-c4cccc(S(=O)(=O)NC(C)(C)C)c4)c3n2)cc1OC` [Compound 53, N-tert-butyl-3-(2-(3,4-dimethoxyphenylamino)thieno[3,2-d]pyrimidin-7-yl)benzenesulfonamide]: the IC50 – broadly, the concentration that gives 50% inhibition – in test [1] is below 1000 nM; in test [2], below 500 nM; in test [3], below 100 nM; in test [4] it was below 100 nM; in test [5], below 1000 nM; in test [6], below 5000 nM. Besides, the IC50 in test [7] was below 1000 nM.
Take `Cn1cc(-c2ccc(S(N)(=O)=O)cc2)c2nc(Nc3ccc(N4CCOCC4)cc3)ncc21` [Compound 34, 4-(5-methyl-2-(4-morpholinophenylamino)-5H-pyrrolo[3,2-d]pyrimidin-7-yl)benzenesulfonamide]: the IC50 in test [1] is below 1000 nM; in test [2], below 500 nM; in test [3], below 100 nM; in test [4], below 100 nM; in test [5] it was below 20000 nM; in test [6] (given as number), above 20000 nM. Besides, the IC50 in test [7] (given as number) was above 20000 nM.
As for `COc1cc(Nc2ncc3scc(-c4cccc(S(=O)(=O)NC(C)(C)C)c4)c3n2)cc(OC)c1OC` [Compound 50, N-tert-butyl-3-(2-(3,4,5-trimethoxyphenylamino)thieno[3,2-d]pyrimidin-7-yl)benzenesulfonamide], the half-inhibitory concentration (IC50) in test [1] was below 1000 nM; in test [2], below 500 nM; in test [3], below 100 nM; in test [4] it was below 100 nM; in test [5] it was below 1000 nM; in test [6] it was below 1000 nM. The IC50 in test [7] was below 1000 nM.
Turning to `CS(=O)(=O)N(CC#N)c1cccc(-c2csc3cnc(Nc4ccc(N5CCOCC5)cc4)nc23)c1` [Compound 31, N-(cyanomethyl)-N-(3-(2-(4-morpholinophenylamino)thieno[3,2-d]pyrimidin-7-yl)phenyl)methanesulfonamide], the half-maximal inhibitory concentration (IC50) in test [1] is below 1000 nM; in test [2], below 100 nM; in test [3] it was below 100 nM; in test [4] it was below 100 nM; in test [5] it was below 1000 nM; in test [6], below 1000 nM. Further, in test [7], the IC50 was below 1000 nM.
As to `COc1cc(-c2csc3cnc(Nc4ccc(N5CCOCC5)cc4)nc23)ccc1O` [Compound 15, 2-methoxy-4-(2-(4-morpholinophenylamino)thieno[3,2-d]pyrimidin-7-yl)phenol], the IC50 was below 1000 nM in test [1]; below 100 nM in test [2]; below 100 nM in test [3]; below 100 nM in test [4]; above 20000 nM in test [5] (given as number); above 20000 nM in test [6] (given as number). This molecule also returned an IC50 in test [7] (given as number) above 20000 nM.
As to `CS(=O)(=O)Nc1ccc(-c2csc3cnc(Nc4ccc(N5CCOCC5)cc4)nc23)cc1` [Compound 14, N-(4-(2-(4-morpholinophenylamino)thieno[3,2-d]pyrimidin-7-yl)phenyl)methanesulfonamide], the IC50 in test [1] is below 1000 nM; in test [2], below 100 nM; in test [3] it was below 100 nM; in test [4], below 100 nM; in test [5] it was below 1000 nM; in test [6], below 1000 nM. In test [7], the IC50 is below 1000 nM.
Take `NS(=O)(=O)c1ccc(-c2csc3cnc(Nc4ccc(N5CCOCC5)cc4)nc23)cc1` [Compound 11, 4-(2-(4-morpholinophenylamino)thieno[3,2-d]pyrimidin-7-yl)benzenesulfonamide]: the IC50 is below 1000 nM in test [1]; below 100 nM in test [2]; below 100 nM in test [3]; below 100 nM in test [4]; below 5000 nM in test [5]; below 1000 nM in test [6]. Further, the IC50 in test [7] was below 5000 nM.
Regarding `CC(C)(C)OC(=O)NCc1cccc(-c2csc3cnc(Nc4ccc(OCCN5CCCC5)cc4)nc23)c1` [Compound 72], the IC50 in test [1] was below 1000 nM; in test [2] it was below 100 nM; in test [3], below 100 nM; in test [5] it was below 5000 nM; in test [6], below 1000 nM; in test [7], below 1000 nM.
Take `CC(C)(C)NS(=O)(=O)c1cccc(-c2csc3cnc(Nc4ccc(OCCN5CCCC5)cc4)nc23)c1` [Compound 71, N-tert-butyl-3-(2-(4-(2-(pyrrolidin-1-yl)ethoxy)phenylamino)thieno[3,2-d]pyrimidin-7-yl)benzenesulfonamide]: the IC50 was below 1000 nM in test [1]; below 100 nM in test [2]; below 100 nM in test [3]; below 5000 nM in test [5]; below 5000 nM in test [6]; below 1000 nM in test [7].
For `COc1cc(Nc2ncc3scc(-c4ccc(CO)cc4)c3n2)cc(OC)c1OC` [Compound 88, (4-(2-(3,4,5-trimethoxyphenylamino)thieno[3,2-d]pyrimidin-7-yl)phenyl)methanol], the IC50 in test [1] is below 1000 nM; in test [2], below 100 nM; in test [3], below 100 nM; in test [5], below 1000 nM; in test [6], below 1000 nM; in test [7], below 1000 nM.
Regarding `Cn1cc(-c2ccc(NS(C)(=O)=O)cc2)c2nc(Nc3ccc(N4CCOCC4)cc3)ncc21` [Compound 35, N-(4-(5-methyl-2-(4-morpholinophenylamino)-5H-pyrrolo[3,2-d]pyrimidin-7-yl)phenyl)methanesulfonamide], the IC50 in test [1] was below 5000 nM; in test [2], below 1000 nM; in test [3] it was below 100 nM; in test [5], below 5000 nM; in test [6], below 5000 nM; in test [7], below 20000 nM.
In the case of `CS(=O)(=O)NCc1cccc(-c2csc3cnc(Nc4ccc(OCCN5CCCC5)cc4)nc23)c1` [Compound 91], the IC50 was below 1000 nM in test [1]; below 100 nM in test [2]; below 100 nM in test [3]; below 1000 nM in test [5]; below 1000 nM in test [6]; below 1000 nM in test [7].
For `NS(=O)(=O)c1cccc(-c2csc3cnc(Nc4ccc(OCCN5CCCC5)cc4)nc23)c1` [Compound 73, 3-(2-(4-(2-(pyrrolidin-1-yl)ethoxy)phenylamino)thieno[3,2-d]pyrimidin-7-yl)benzenesulfonamide], the IC50 in test [1] was below 1000 nM; in test [2], below 100 nM; in test [3], below 100 nM; in test [5], below 1000 nM; in test [6] it was below 5000 nM; in test [7], below 1000 nM.
As for `COc1cc(Nc2ncc3scc(-c4cccc(CO)c4)c3n2)cc(OC)c1OC` [Compound 87, (3-(2-(3,4,5-trimethoxyphenylamino)thieno[3,2-d]pyrimidin-7-yl)phenyl)methanol], the IC50 in test [1] is below 1000 nM; in test [2], below 100 nM; in test [3], below 100 nM; in test [5] it was below 1000 nM; in test [6], below 1000 nM; in test [7] it was below 1000 nM.
